Reference: ChEMBL document CHEMBL1138824, “Design and synthesis of hydroxyethylene-based peptidomimetic inhibitors of human beta-secretase” (J Med Chem, 2004)
Residues, ends and D or L forms follow the SMILES beside them.

Test system: HEK293
Assay: Effective concentration evaluated in HEK293 cells
Format: functional, cell-based
Conditions: Homo sapiens

Compound	EC50 [nM]
CCCN(CCC)C(=O)c1cccc(C(=O)N[C@@H](Cc2cc(F)cc(F)c2)[C@@H](O)C[C@@H](C)C(=O)NCC(C)C)c1	3000
CC(C)[C@H](NC(=O)C[C@H](O)[C@H](Cc1cc(F)cc(F)c1)NC(=O)C(O)c1ccccc1-c1ccccc1)C(=O)N[C@H]1C[C@@H](C(=O)O)C[C@@H](C(=O)O)C1 (some centres undefined)	> 10000
CCCN(CCC)C(=O)c1cccc(C(=O)N[C@@H](Cc2cc(F)cc(F)c2)[C@@H](O)CC(=O)N[C@H](C(=O)N[C@H]2C[C@@H](C(=O)O)C[C@@H](C(=O)O)C2)C(C)C)c1	1000

Target: Beta-secretase (BACE) (Homo sapiens, UniProt Q9Y5Z0+P56817)
Assay: Inhibition of human beta secretase in MBP-C125 assay.
Format: protein assay
Conditions: not given

IC50 [nM]	Compound
3	CSCC[C@H](NC(=O)[C@@H](NC(=O)OC(C)(C)C)C(C)C)C(=O)N[C@@H](CC(C)C)[C@@H](O)C[C@@H](C)C(=O)N[C@H](C(=O)NCc1ccccc1)C(C)C
4000	CC(C)C[C@H](NC(=O)C(O)c1cccc2ccccc12)[C@@H](O)CC(=O)N[C@H](C(=O)N[C@@H](C)C(=O)N[C@@H](CCC(=O)O)C(=O)N[C@@H](Cc1ccccc1)C(=O)O)C(C)C (some centres undefined) (HELM PEPTIDE1{[O=C(C(O)c1cccc2ccccc12)[*:2]].[CC(C)C[C@H](N[*:1])[C@@H](O)CC(=O)[*:2]].V.A.E.F}$$$$V2.0)
7500	CC(C)C[C@H](NC(=O)C(O)c1cccc2ccccc12)[C@@H](O)C[C@H](C(=O)N[C@@H](C)C(=O)N[C@@H](CCC(=O)O)C(=O)N[C@@H](Cc1ccccc1)C(=O)O)C(C)C (some centres undefined)
30	CCCN(CCC)C(=O)c1cccc(C(=O)N[C@@H](Cc2cc(F)cc(F)c2)[C@@H](O)C[C@@H](C)C(=O)NCC(C)C)c1
20	CC(C)[C@H](NC(=O)C[C@H](O)[C@H](Cc1cc(F)cc(F)c1)NC(=O)C(O)c1ccccc1-c1ccccc1)C(=O)N[C@H]1C[C@@H](C(=O)O)C[C@@H](C(=O)O)C1 (some centres undefined)
310	CCCN(CCC)C(=O)c1cccc(C(=O)N[C@@H](Cc2cc(F)cc(F)c2)[C@@H](O)C[C@@H](CC(C)C)C(=O)NC[C@H]2CC[C@H](C(=O)O)CC2)c1
30	CSCC[C@H](NC(=O)[C@@H](NC(C)=O)C(C)C)C(=O)N[C@@H](CC(C)C)[C@@H](O)C[C@H](C(=O)N[C@@H](C)C(=O)N[C@@H](CCC(=O)O)C(=O)N[C@@H](Cc1ccccc1)C(=O)O)C(C)C (HELM PEPTIDE1{[ac].V.M.[CC(C)C[C@H](N[*:1])[C@@H](O)C[C@H](C(=O)[*:2])C(C)C].A.E.F}$$$$V2.0)
1400	CCCN(CCC)C(=O)c1cccc(C(=O)N[C@@H](Cc2cc(F)cc(F)c2)[C@@H](O)C[C@@H](CC)C(=O)NCc2ccccc2)c1
1	CCCN(CCC)C(=O)c1cccc(C(=O)N[C@@H](Cc2cc(F)cc(F)c2)[C@@H](O)CC(=O)N[C@H](C(=O)N[C@H]2C[C@@H](C(=O)O)C[C@@H](C(=O)O)C2)C(C)C)c1

Second part, the molecule before the results:

Compound	IC50 [nM]
CCCN(CCC)C(=O)c1cccc(C(=O)N[C@@H](Cc2cc(F)cc(F)c2)[C@@H](O)C[C@@H](CC)C(=O)N[C@H]2C[C@@H](OC)C[C@@H](OC)C2)c1	6600
CCCN(CCC)C(=O)c1cccc(C(=O)N[C@@H](Cc2cc(F)cc(F)c2)[C@@H](O)C[C@@H](CC)C(=O)NCCCCCC(=O)O)c1	240
CCCN(CCC)C(=O)c1cccc(C(=O)N[C@@H](Cc2cc(F)cc(F)c2)[C@@H](O)C[C@@H](CC)C(=O)NCCCCCCCC(=O)O)c1	200
CCCN(CCC)C(=O)c1cccc(C(=O)N[C@@H](Cc2cc(F)cc(F)c2)[C@@H](O)C[C@@H](CC)C(=O)NCCCC(=O)O)c1	310
CCCN(CCC)C(=O)c1cccc(C(=O)N[C@@H](Cc2cc(F)cc(F)c2)[C@@H](O)CCC(=O)NC[C@H]2CC[C@H](C(=O)O)CC2)c1	400
CCCN(CCC)C(=O)c1cccc(C(=O)N[C@@H](Cc2cc(F)cc(F)c2)[C@@H](O)C[C@@H](CC)C(=O)NCCC(=O)O)c1	2800
CCCN(CCC)C(=O)c1cccc(C(=O)N[C@@H](Cc2cc(F)cc(F)c2)[C@@H](O)C[C@@H](C)C(=O)NC[C@H]2CC[C@H](C(=O)O)CC2)c1	26
CCCN(CCC)C(=O)c1cccc(C(=O)N[C@@H](Cc2cc(F)cc(F)c2)[C@@H](O)C[C@@H](CC)C(=O)NCCCCCCCC(=O)OC)c1	410
CCCN(CCC)C(=O)c1cccc(C(=O)N[C@@H](Cc2cc(F)cc(F)c2)[C@@H](O)C[C@@H](CC)C(=O)NCCCCC(=O)O)c1	400
CCC[C@H](C[C@H](O)[C@H](Cc1cc(F)cc(F)c1)NC(=O)c1cccc(C(=O)N(CCC)CCC)c1)C(=O)NC[C@H]1CC[C@H](C(=O)O)CC1	45
CCCN(CCC)C(=O)c1cccc(C(=O)N[C@@H](Cc2cc(F)cc(F)c2)[C@@H](O)C[C@@H](CC)C(=O)NC[C@H]2CC[C@H](C(=O)O)CC2)c1	50
CCCN(CCC)C(=O)c1cccc(C(=O)N[C@@H](Cc2cc(F)cc(F)c2)[C@@H](O)C[C@@H](Cc2ccccc2)C(=O)NC[C@H]2CC[C@H](C(=O)O)CC2)c1	27000
